Data taken from article PMC5145767 (Neuron, 2016).
Where two headings read alike, the source gives them in different places.

Legend:
[1] = molecular target: T1, DGluR1A (Drosophila melanogaster, UniProt Q03445); assay: DGluR1A coexpressed with Apis Stg1 in Xenopus oocytes; format: cell-based; conditions: for activation, % of the response to glutamate recorded in the same cell: agonists 3 mM
[2] = system: DGluR1A Y792T; assay: Proteolysis protection assay of DGluR1A Y792T mutant; format: binding, Drosophila melanogaster; conditions: Figure S8B
[3] = molecular target: DGluR1A Y792T (Drosophila melanogaster, UniProt Q03445, Y792T); assay: Receptor activity of DGluR1A Y792T mutant; format: cell-based; conditions: Figure S8C
[4] = system: DGluR1A ligand-binding domain; design: species or system Drosophila melanogaster; conditions: ligand 1 mM, trypsin 1:20
[5] = system: DKaiR1D ligand-binding domain; design: species or system Drosophila melanogaster; conditions: ligand 1 mM, trypsin 1:20, 60 min
[6] = molecular target: T2, DKaiR1D (Drosophila melanogaster, UniProt Q9VDH5); format: cell-based; conditions: for activation of DKaiR1D: Xenopus oocytes, ligands of b17 all applied at 10 mM
[7] = system: GluK2; conditions: ref Plested and Mayer, 2007; cited from earlier work
[8] = molecular target: T2, DKaiR1D; format: cell-based
[9] = molecular target: T1, DGluR1A; conditions: 1992, cited from earlier work
[10] = system: DKaiR1D Q604R; assay: DKaiR1D Q604R mutant responses in Xenopus oocytes; format: cell-based, Drosophila melanogaster; conditions: 3 μM toxin, 3 mM glutamate, -60 mV
[11] = 10 mM glutamate, decay fit by sum of two exponentials
[12] = NaCl, NaMeSO3 exchange experiment

T1 sequence (Q03445 28-991): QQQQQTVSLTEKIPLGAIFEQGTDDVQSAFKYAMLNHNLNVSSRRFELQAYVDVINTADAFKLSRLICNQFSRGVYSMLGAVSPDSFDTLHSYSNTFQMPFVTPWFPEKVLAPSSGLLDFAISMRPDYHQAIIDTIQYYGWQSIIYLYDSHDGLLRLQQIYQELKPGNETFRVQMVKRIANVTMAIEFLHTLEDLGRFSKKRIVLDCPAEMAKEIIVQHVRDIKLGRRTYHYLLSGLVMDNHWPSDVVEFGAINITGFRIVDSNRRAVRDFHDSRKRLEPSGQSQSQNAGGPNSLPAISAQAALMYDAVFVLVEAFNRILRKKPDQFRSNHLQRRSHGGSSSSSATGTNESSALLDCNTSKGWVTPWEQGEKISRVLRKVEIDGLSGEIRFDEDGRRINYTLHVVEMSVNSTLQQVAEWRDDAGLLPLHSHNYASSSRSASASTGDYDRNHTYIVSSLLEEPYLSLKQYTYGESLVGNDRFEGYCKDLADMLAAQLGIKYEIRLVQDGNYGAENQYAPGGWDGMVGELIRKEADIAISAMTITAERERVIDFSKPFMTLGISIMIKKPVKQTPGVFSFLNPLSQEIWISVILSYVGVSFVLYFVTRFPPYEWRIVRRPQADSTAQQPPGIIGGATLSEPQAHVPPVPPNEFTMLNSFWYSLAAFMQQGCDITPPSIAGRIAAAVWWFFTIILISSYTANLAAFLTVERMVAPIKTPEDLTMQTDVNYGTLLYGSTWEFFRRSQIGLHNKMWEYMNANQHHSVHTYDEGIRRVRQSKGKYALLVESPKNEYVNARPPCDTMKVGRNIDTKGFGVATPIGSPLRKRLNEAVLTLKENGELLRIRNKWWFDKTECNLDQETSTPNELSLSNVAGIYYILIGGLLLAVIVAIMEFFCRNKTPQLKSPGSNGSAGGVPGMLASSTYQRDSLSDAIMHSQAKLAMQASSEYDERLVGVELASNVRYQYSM
Chain of DGluR1A Y792T (Drosophila melanogaster, UniProt Q03445, Y792T) (Q03445 28-991 Y792T): as the sequence (Q03445 28-991) above, with Y765T counted along it

Cc1o[nH]c(=O)c1CC(N)C(=O)O (centres unmarked) [AMPA]
activation, % of the response to glutamate recorded in the same cell ([1]; -60 mV, Apis Stg1): 40 ± 4% | binding in proteolysis protection assay [2]: but not AMPA, binds strongly | receptor activation [3]: but not AMPA, binds strongly and produces full receptor activation | protection from digestion by trypsin [4]: but not AMPA, NMDA, aspartate or AP5 were protective | protection from digestion by trypsin [5]: inactive | activation of DKaiR1D ([6]; -60 mV): but not AMPA, aspartate or NMDA produced activation

NC(CCCP(=O)(O)O)C(=O)O (centres unmarked) [AP5]
protection from digestion by trypsin [4]: but not AMPA, NMDA, aspartate or AP5 were protective | protection from digestion by trypsin [5]: protective | activation of DKaiR1D ([6]; -60 mV): nor AP5 (Figure S5) produced DKaiR1D activation

N#Cc1cc2[nH]c(=O)c(=O)[nH]c2cc1[N+](=O)[O-] [CNQX]
protection from digestion by trypsin [4]: protective | protection from digestion by trypsin [5]: weak protection | block of responses to 10 mM glutamate ([6]; antagonist 10 mM, -60 mV): 34.3 ± 3.0%

N[C@H](CCCP(=O)(O)O)C(=O)O [D-AP5, 2(R)-amino-5-phosphonopentanoic acid]
block of responses to 1 mM glutamate [6]: 22.7 ± 0.8% | block of responses to 10 mM glutamate [6]: 16.6 ± 1.0%

N[C@@H](CCCP(=O)(O)O)C(=O)O [L-AP5]
block of responses to 1 mM glutamate ([6]; antagonist 10 mM, -60 mV): 35.7 ± 1.4% | block of responses to 10 mM glutamate ([6]; antagonist 10 mM, -60 mV): 11.7 ± 1.2%

CN[C@H](CC(=O)O)C(=O)O [NMDA]
activation of DGluR1A ([1]; agonist 3 mM, -60 mV, Apis Stg1): no activation | protection from digestion by trypsin [4]: but not AMPA, NMDA, aspartate or AP5 were protective | protection from digestion by trypsin [5]: protective | IC50 [6]: 900 µM | activation of DKaiR1D ([6]; -60 mV): but not AMPA, aspartate or NMDA produced activation | block of responses to 10 mM glutamate ([6]; antagonist 10 mM, -60 mV): 79.2 ± 2.2%

N[C@@H](CC(=O)O)C(=O)O [aspartate]
activation, % of the response to glutamate recorded in the same cell ([1]; -60 mV, Apis Stg1): 28 ± 8% | protection from digestion by trypsin [5]: to a lesser extent aspartate were also protective | activation of DKaiR1D ([6]; -60 mV): but not AMPA, aspartate or NMDA produced activation

N[C@@H](CCC(=O)O)C(=O)O [glutamate]
EC50 [1]: 136 ± 8 µM | increase of rate of onset of desensitization on exchange of NaMeSO3 for NaCl [7]: 7 fold | protection from digestion by trypsin [4]: protective | protection from digestion by trypsin [5]: prevented digestion by trypsin | EC50 [6]: 10700 ± 500 µM | activation of DKaiR1D ([6]; -60 mV): produced activation | deactivation rate constant ([8]; 10 mM glutamate applied for 1 ms): 2523 ± 218 s⁻¹ | 10–90% rise time ([8]; 10 mM glutamate applied for 1 ms, outside-out patch): 217 ± 6 μs | desensitization kfast [8, 11]: 1317 ± 105 s⁻¹ | desensitization kslow [8, 11]: 107 ± 22 s⁻¹ | onset of desensitization kfast ([8]; CsCl): 1884 ± 99 s⁻¹ | onset of desensitization kslow ([8]; CsCl): 192 ± 28 s⁻¹ | onset of desensitization kfast ([8]; NaCl, CsCl exchange experiment): 1504 ± 90 s⁻¹ | onset of desensitization kslow ([8]; NaCl, CsCl exchange experiment): 165 ± 27 s⁻¹ | onset of desensitization kfast [8, 12]: 1970 ± 88 s⁻¹ | onset of desensitization kslow [8, 12]: 190 ± 31 s⁻¹ | onset of desensitization kfast ([8]; NaMeSO3): 1985 ± 68 s⁻¹ | onset of desensitization kslow ([8]; NaMeSO3): 236 ± 39 s⁻¹ | recovery from desensitization kslow ([8]; twin pulse protocol, sum of two exponentials): 9.9 s⁻¹

C=C(C)[C@H]1CN[C@H](C(=O)O)[C@H]1CC(=O)O [kainate]
EC50 [1]: 125 ± 4 µM | protection from digestion by trypsin [4]: protective | protection from digestion by trypsin [5]: prevented digestion by trypsin | EC50 ([9]; read-out: EC50 for activation, prior studies ref Ultsch et al.): 75 µM | activation of DKaiR1D ([6]; -60 mV): produced activation

N[C@@H](Cn1oc(=O)[nH]c1=O)C(=O)O [quisqualate, quisqualic acid]
activation, % of the response to glutamate recorded in the same cell ([1]; -60 mV, Apis Stg1): 41 ± 3% | binding in proteolysis protection assay [2]: binds strongly | receptor activation [3]: produces full receptor activation | protection from digestion by trypsin [4]: protective | protection from digestion by trypsin [5]: prevented digestion by trypsin | amplitude of responses relative to those to glutamate [6]: 0.78 ± 0.03 | activation of DKaiR1D ([6]; -60 mV): produced activation

philanthotoxin-433
inhibition of DGluR1A ([9]; ref Ultsch et al.): inhibition of DGluR1A by philanthotoxin | block of wild type responses to glutamate by extracellular toxin ([6]; 3 μM toxin, 3 mM glutamate, -60 mV, several minutes for full recovery): blocked | block of Q604R mutant responses to glutamate [10]: did not block
